Test results: ChEMBL document CHEMBL1201862, “PubChem BioAssay data set” (2004)
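48-hour exposure; five concentrations; linearly interpolated endpoints. GI50 is the concentration that inhibits growth by half.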 Calls of active or inactive are those of the source. No stated cut-off is given here; in the data, active = GI50 up to about 1.1 µM and inactive = higher.

Experiments:
Experiment in all cases: NCI tumour cell line growth inhibition, 48 h
HCT-116 = test system: HCT-116
ACHN = test system: ACHN
CCRF-CEM = test system: CCRF-CEM
COLO 205 = test system: COLO 205
U-251 = test system: U-251
DU-145 = test system: DU-145
MDA-MB-231 = test system: MDA-MB-231
SK-MEL-2 = test system: SK-MEL-2
NCI-H23 = test system: NCI-H23
Malme-3M = test system: Malme-3M
M14 = test system: M14
UACC-257 = test system: UACC-257
UACC-62 = test system: UACC-62
SN12C = test system: SN12C
786-0 = test system: 786-0
MDA-N = test system: MDA-N
HOP-92 = test system: HOP-92
HCC 2998 = test system: HCC 2998
A498 = test system: A498
NCI-H226 = test system: NCI-H226

Measured: GI50

Cc1ccc(S(=O)(=O)NC(=O)NC(C(=O)O)C(C)O)cc1 (centres undefined)
inactive: HCT-116 > 100 µM | ACHN > 100 µM | CCRF-CEM > 100 µM | COLO 205 > 100 µM | U-251 > 100 µM | DU-145 > 100 µM | MDA-MB-231 > 100 µM | SK-MEL-2 > 100 µM | NCI-H23 > 100 µM | Malme-3M > 100 µM | M14 > 100 µM | UACC-257 > 100 µM | UACC-62 > 100 µM | SN12C > 100 µM | 786-0 > 100 µM | MDA-N > 100 µM | HOP-92 > 100 µM

CCCCCCCC(=O)N1C2CC3CCC2(CS1(=O)=O)C3(C)C (centres undefined)
inactive: HCT-116 30.1 µM | ACHN 42.1 µM | CCRF-CEM 16.5 µM | COLO 205 21.8 µM | U-251 31.3 µM | DU-145 36.6 µM | HCC 2998 24.7 µM | NCI-H23 33.3 µM | Malme-3M 16.7 µM | M14 17.5 µM | UACC-257 24.5 µM | A498 76.9 µM | UACC-62 22.8 µM | SN12C 20.9 µM | 786-0 15.7 µM | MDA-N 26.8 µM | HOP-92 20.6 µM

COC(=O)[C@H](Cc1ccccc1)NC(=O)N1CCCN(C(=O)N[C@@H](Cc2ccccc2)C(=O)OC)CCCN(C(=O)N[C@@H](Cc2ccccc2)C(=O)OC)CCC1
inactive: HCT-116 20.2 µM | ACHN 17.1 µM | CCRF-CEM 32.5 µM | COLO 205 18 µM | U-251 16.7 µM | DU-145 18.4 µM | SK-MEL-2 15 µM | HCC 2998 18.1 µM | NCI-H23 27.2 µM | Malme-3M 17.2 µM | NCI-H226 16.5 µM | M14 18 µM | UACC-257 18.2 µM | A498 19.9 µM | UACC-62 16.2 µM | SN12C 19.6 µM | 786-0 17.5 µM | MDA-N 26.1 µM | HOP-92 16 µM

CC(C)(C)[Si](C)(C)OCC1OC(n2cnc3c(NC(=O)c4ccccc4)ncnc32)CC1O (centres undefined)
inactive: HCT-116 29.7 µM | ACHN 31.4 µM | CCRF-CEM 22.4 µM | COLO 205 18.3 µM | U-251 20.5 µM | DU-145 64 µM | MDA-MB-231 22.1 µM | SK-MEL-2 27.2 µM | HCC 2998 27.7 µM | NCI-H23 48.9 µM | Malme-3M 30.5 µM | NCI-H226 24.5 µM | M14 19.9 µM | UACC-257 39.5 µM | A498 32.9 µM | UACC-62 18.7 µM | SN12C 33.4 µM | 786-0 21.4 µM | HOP-92 23.5 µM

COc1ccc(/N=N/c2c(C)c(C#N)c(=S)n(C3OC(CO)C(O)C(O)C3O)c2C)cc1 (centres undefined)
inactive: HCT-116 31.6 µM | ACHN 36.4 µM | CCRF-CEM 23.7 µM | COLO 205 58.3 µM | U-251 51.5 µM | DU-145 44.7 µM | MDA-MB-231 62.8 µM | SK-MEL-2 71.3 µM | NCI-H23 35.6 µM | M14 26.7 µM | UACC-257 71.9 µM | UACC-62 30.4 µM | 786-0 44.2 µM | MDA-N 30.6 µM | HOP-92 16.9 µM

N#C/C(=C\c1ccc(O)c(O)c1)C(N)=S [TYRPHOSTIN 47]
inactive: HCT-116 50.2 µM | ACHN > 100 µM | CCRF-CEM 9.55 µM | COLO 205 56 µM | U-251 70.5 µM | SK-MEL-2 > 100 µM | HCC 2998 > 73.5 µM | NCI-H23 64 µM | Malme-3M > 100 µM | NCI-H226 > 100 µM | M14 > 100 µM | UACC-257 > 54.7 µM | A498 > 100 µM | UACC-62 81.5 µM | SN12C > 100 µM | 786-0 56.6 µM | HOP-92 > 58.3 µM
